Data reported in ChEMBL document CHEMBL5653615 (J Biol Chem, 2013).

Tests used:
[1] = target: T1, Activin receptor type-1B (Homo sapiens) (UniProt P36896); assay: Inhibition of human ALK4 at 18.6 nM by HotSpot assay relative to control
T1 sequence (whole entry): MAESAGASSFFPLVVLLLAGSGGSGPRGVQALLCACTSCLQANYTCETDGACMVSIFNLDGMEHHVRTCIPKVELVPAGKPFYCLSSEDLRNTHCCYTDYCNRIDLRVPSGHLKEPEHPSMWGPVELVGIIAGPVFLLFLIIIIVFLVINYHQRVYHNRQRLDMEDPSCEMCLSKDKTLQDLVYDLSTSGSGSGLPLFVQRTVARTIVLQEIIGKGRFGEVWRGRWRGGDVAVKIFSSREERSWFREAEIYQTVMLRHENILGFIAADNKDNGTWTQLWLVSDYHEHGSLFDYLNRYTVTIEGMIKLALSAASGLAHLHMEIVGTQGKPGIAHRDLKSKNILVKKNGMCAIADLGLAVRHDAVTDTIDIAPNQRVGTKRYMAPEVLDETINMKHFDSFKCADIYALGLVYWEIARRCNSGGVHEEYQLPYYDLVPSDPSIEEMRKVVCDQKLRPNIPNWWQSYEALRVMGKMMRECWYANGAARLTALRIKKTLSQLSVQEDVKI

[2] = target: T2, Aurora kinase A (Homo sapiens) (UniProt O14965); assay: Inhibition of human Aurora A at 18.6 nM by HotSpot assay relative to control
T2 sequence (whole entry): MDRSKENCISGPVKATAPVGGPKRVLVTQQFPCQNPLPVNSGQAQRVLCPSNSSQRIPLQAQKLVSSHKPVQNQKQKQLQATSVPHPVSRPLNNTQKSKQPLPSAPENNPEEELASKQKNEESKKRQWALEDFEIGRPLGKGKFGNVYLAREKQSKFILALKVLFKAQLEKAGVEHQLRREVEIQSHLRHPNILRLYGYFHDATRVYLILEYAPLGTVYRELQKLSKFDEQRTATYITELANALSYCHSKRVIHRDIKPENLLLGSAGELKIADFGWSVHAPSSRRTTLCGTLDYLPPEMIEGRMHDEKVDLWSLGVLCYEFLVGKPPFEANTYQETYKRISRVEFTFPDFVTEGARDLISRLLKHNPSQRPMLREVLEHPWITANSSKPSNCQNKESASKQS

[3] = target: Ephrin type-A receptor 4 (Homo sapiens) (UniProt P54764); assay: Inhibition of human EPHA4 at 18.6 nM by HotSpot assay relative to control
[4] = target: Fibroblast growth factor receptor 2 (Homo sapiens) (UniProt P21802); assay: Inhibition of human FGFR2 at 18.6 nM by HotSpot assay relative to control
[5] = target: Tyrosine-protein kinase Fgr (Homo sapiens) (UniProt P09769); assay: Inhibition of human FGR at 18.6 nM by HotSpot assay relative to control
[6] = target: Tyrosine-protein kinase FRK (Homo sapiens) (UniProt P42685); assay: Inhibition of human FRK at 18.6 nM by HotSpot assay relative to control
[7] = target: Dual specificity mitogen-activated protein kinase kinase 1 (Homo sapiens) (UniProt Q02750); assay: Inhibition of human MEK1 at 18.6 nM by HotSpot assay relative to control
[8] = target: Serine/threonine-protein kinase PLK3 (Homo sapiens) (UniProt Q9H4B4); assay: Inhibition of human PLK3 at 18.6 nM by HotSpot assay relative to control
[9] = target: Vascular endothelial growth factor receptor 3 (Homo sapiens) (UniProt P35916); assay: Inhibition of human FLT4 at 1.82 nM by HotSpot assay relative to control
[10] = target: T3, Serine/threonine-protein kinase haspin (Homo sapiens) (UniProt Q8TF76); assay: Inhibition of human Haspin at 1.82 nM by HotSpot assay relative to control
T3 sequence (whole entry): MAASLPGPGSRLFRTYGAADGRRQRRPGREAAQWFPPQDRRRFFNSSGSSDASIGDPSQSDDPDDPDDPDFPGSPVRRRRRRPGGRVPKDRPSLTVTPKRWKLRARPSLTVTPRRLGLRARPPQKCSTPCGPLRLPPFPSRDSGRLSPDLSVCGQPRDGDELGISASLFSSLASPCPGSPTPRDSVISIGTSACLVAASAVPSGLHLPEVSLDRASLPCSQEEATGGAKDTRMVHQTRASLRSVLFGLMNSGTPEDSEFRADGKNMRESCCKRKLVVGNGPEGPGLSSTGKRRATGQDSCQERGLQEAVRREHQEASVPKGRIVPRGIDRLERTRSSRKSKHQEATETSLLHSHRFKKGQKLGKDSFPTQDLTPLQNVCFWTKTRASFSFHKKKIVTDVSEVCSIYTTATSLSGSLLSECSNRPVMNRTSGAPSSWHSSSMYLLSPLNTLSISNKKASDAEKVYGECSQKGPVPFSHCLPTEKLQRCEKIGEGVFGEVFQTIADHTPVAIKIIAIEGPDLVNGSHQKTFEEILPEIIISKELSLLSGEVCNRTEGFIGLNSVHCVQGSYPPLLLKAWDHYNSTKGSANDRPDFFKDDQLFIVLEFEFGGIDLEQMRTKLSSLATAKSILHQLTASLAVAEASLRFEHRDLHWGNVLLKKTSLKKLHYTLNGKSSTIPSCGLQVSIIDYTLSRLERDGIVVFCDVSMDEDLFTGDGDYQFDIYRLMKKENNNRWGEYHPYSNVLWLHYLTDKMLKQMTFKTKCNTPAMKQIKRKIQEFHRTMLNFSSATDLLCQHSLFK

[11] = target: Interleukin-1 receptor-associated kinase 1 (Homo sapiens) (UniProt P51617); assay: Inhibition of human IRAK1 at 1.82 nM by HotSpot assay relative to control
[12] = target: T4, Serine/threonine-protein kinase Nek2 (Homo sapiens) (UniProt P51955); assay: Inhibition of human NEK2 at 1.82 nM by HotSpot assay relative to control
T4 sequence (whole entry): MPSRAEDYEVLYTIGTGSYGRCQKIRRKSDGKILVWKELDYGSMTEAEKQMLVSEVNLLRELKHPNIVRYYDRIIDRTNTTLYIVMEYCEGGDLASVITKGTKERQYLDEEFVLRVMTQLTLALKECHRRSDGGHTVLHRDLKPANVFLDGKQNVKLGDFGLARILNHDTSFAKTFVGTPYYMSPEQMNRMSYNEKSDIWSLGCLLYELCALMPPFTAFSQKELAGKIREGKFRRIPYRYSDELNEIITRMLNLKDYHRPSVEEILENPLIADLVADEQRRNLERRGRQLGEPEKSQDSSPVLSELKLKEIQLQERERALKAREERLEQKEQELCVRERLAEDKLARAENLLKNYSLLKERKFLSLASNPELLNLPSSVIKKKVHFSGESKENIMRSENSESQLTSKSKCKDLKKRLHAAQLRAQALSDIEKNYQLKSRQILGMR

Chain of Vascular endothelial growth factor receptor 3 (Homo sapiens) (P35916 whole entry): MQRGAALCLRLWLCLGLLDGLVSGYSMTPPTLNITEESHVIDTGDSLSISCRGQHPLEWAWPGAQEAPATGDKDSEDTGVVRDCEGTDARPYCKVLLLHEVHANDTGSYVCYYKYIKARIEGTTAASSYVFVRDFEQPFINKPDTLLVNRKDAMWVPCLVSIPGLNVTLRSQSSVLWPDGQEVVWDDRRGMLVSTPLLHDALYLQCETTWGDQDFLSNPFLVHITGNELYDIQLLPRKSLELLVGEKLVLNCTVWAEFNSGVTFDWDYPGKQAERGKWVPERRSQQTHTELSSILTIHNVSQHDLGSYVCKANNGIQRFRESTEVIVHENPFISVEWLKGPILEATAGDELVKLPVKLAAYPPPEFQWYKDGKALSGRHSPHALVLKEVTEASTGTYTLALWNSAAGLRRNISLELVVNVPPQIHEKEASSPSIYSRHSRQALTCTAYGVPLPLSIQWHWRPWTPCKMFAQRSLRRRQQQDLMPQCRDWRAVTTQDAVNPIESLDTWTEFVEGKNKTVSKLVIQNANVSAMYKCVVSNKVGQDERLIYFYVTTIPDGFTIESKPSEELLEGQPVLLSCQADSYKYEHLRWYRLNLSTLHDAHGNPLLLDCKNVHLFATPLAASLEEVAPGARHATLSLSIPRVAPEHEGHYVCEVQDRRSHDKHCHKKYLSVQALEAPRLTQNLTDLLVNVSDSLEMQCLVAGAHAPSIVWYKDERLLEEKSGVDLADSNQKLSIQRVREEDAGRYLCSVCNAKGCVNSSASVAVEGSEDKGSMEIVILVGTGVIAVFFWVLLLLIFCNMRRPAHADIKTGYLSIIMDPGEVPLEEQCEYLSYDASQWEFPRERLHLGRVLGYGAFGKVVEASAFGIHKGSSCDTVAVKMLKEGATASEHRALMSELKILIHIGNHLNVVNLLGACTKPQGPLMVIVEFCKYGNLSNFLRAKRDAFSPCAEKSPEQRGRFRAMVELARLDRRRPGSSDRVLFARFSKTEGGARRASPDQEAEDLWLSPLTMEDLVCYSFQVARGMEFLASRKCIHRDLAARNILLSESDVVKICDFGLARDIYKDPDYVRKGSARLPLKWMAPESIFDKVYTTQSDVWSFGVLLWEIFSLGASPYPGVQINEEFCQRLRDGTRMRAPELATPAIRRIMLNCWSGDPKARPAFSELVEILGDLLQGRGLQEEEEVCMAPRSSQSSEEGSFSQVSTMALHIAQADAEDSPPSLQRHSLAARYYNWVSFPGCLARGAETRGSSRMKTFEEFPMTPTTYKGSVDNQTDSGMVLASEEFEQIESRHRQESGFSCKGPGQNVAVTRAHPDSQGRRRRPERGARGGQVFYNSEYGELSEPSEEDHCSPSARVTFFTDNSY
Chain of Tyrosine-protein kinase FRK (Homo sapiens) (P42685 whole entry): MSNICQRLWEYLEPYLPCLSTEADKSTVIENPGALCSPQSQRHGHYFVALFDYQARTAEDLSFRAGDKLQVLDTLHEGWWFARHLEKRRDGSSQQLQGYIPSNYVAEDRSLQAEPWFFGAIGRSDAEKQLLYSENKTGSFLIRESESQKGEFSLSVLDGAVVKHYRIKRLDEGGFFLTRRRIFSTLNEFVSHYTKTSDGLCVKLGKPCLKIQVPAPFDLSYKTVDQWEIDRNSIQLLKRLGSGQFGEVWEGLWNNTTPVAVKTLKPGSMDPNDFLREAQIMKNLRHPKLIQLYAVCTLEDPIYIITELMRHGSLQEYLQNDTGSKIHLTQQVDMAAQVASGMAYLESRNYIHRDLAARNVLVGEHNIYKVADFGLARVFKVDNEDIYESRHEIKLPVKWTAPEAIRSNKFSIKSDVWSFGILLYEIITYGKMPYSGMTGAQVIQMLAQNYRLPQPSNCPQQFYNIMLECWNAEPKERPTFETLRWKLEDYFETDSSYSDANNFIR
Chain of Serine/threonine-protein kinase PLK3 (Homo sapiens) (Q9H4B4 whole entry, looked up): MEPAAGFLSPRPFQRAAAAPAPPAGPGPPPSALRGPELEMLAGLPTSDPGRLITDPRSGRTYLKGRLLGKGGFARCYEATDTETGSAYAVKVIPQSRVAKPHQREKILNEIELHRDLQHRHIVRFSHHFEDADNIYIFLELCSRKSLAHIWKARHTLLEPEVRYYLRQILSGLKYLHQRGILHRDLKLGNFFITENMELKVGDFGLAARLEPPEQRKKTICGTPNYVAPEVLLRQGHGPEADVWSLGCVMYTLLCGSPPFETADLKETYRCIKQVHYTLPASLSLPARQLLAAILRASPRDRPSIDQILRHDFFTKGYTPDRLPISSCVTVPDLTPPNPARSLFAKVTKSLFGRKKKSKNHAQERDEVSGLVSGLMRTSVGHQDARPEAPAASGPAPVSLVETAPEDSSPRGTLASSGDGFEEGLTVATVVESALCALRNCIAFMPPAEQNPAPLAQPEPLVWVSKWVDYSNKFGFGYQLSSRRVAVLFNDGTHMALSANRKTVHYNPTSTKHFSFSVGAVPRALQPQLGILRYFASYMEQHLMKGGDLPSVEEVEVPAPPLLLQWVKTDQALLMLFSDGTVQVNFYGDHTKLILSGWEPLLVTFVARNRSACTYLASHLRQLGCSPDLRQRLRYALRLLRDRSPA
Chain of Tyrosine-protein kinase Fgr (Homo sapiens) (P09769 2-529 limits assumed): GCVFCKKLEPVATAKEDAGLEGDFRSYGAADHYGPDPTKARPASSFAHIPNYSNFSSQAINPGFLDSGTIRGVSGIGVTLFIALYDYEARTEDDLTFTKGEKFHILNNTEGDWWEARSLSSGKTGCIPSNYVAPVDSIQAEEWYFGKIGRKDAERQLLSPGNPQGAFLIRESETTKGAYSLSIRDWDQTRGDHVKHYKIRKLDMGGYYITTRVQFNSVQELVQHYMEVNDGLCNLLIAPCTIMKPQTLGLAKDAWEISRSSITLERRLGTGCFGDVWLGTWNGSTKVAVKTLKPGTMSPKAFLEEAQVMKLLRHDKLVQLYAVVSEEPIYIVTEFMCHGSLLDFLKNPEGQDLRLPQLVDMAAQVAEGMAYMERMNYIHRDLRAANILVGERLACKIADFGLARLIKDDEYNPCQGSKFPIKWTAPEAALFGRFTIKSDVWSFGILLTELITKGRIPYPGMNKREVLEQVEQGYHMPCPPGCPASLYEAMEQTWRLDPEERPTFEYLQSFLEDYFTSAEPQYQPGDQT
Chain of Interleukin-1 receptor-associated kinase 1 (Homo sapiens) (P51617 whole entry, looked up): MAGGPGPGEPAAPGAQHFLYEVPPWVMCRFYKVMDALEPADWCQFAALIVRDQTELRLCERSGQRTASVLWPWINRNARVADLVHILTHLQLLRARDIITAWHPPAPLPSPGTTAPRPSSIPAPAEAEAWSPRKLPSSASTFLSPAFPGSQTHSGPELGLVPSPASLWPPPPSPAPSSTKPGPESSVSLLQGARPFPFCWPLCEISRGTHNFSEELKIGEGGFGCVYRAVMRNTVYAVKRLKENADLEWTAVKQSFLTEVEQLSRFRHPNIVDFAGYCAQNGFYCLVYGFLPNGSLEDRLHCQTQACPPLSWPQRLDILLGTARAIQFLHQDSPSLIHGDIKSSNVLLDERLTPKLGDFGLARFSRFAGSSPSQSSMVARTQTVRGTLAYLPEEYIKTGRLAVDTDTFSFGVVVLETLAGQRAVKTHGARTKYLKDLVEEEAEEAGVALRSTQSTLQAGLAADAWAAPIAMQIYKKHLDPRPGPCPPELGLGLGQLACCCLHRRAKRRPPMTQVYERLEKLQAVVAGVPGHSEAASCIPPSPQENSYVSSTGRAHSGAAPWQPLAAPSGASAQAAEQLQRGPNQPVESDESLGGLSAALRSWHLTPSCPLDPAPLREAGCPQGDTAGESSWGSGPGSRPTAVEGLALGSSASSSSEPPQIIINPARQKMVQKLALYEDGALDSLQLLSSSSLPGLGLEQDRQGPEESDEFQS
Chain of Fibroblast growth factor receptor 2 (Homo sapiens) (P21802 22-821 limits assumed): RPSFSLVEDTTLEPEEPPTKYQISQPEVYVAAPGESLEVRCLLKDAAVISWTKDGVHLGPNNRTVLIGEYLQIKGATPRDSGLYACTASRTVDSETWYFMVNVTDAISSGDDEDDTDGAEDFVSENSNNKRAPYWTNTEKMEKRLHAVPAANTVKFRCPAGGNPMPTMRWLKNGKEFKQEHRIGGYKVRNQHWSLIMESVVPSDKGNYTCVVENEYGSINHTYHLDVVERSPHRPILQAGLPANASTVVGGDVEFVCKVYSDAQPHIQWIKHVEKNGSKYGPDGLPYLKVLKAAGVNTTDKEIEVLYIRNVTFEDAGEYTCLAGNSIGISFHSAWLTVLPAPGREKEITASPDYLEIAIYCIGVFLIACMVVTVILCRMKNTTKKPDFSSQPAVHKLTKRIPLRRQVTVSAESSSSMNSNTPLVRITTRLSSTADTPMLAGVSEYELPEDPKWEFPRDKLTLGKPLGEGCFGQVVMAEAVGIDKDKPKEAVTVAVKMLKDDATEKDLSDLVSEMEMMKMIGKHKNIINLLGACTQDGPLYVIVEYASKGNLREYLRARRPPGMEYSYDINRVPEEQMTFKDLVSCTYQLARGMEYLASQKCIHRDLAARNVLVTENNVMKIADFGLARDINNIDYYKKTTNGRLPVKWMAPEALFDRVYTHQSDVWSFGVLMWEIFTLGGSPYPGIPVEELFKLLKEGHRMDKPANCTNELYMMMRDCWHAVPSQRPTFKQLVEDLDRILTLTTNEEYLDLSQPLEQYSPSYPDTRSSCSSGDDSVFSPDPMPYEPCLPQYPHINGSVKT
Chain of Dual specificity mitogen-activated protein kinase kinase 1 (Homo sapiens) (Q02750 whole entry): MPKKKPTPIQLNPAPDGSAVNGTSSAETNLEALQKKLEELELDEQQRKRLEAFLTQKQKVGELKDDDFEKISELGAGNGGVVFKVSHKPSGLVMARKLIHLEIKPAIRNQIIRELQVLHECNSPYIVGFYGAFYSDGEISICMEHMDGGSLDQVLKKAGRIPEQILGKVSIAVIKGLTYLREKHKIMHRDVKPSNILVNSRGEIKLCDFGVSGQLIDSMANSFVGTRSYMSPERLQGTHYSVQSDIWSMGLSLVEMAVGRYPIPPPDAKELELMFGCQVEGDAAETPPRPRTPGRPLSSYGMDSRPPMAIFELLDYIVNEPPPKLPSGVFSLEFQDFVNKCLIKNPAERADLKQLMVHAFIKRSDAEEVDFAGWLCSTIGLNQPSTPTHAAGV

inhibition [1] [%] | inhibition [2] [%] | inhibition [3] [%] | inhibition [4] [%] | inhibition [5] [%] | inhibition [6] [%] | inhibition [7] [%] | inhibition [8] [%] | inhibition [9] [%] | inhibition [10] [%] | inhibition [11] [%] | inhibition [12] [%] | Compound
-0.44 | -2.4 | -8.39 | -3.25 | -9.34 | -0.1 | -8.63 | 3.09 |  |  |  |  | C[C@]1(O)C[C@@H](c2nc(-c3ccc4ccc(-c5ccccc5)nc4c3)c3c(N)nccn32)C1
 |  |  |  |  |  |  |  | -6.12 | -1.25 | -7.77 | 0.74 | C[C@@]1(C(=O)Nc2ccc(F)nc2)CCCN1c1nc(Nc2cc(C3CC3)n[nH]2)c2cccn2n1
